Source: US5837868A, “Process for preparation of chiral 3-amino-pyrrolidine and analogous bicyclic compounds” (Abbott Laboratories, priority 1997, dated 1998)
In brackets after ≈: the same amount, converted by molar mass. Where a name gives a salt, the structure may show the parent alone. Read-outs that look alike come from different tables or passages of the source.

Key:
P. aeruginosa A5007 = assay: In vitro antibacterial activity, agar dilution MIC; format: cell-based; conditions: Pseudomonas aeruginosa
Description: (§1) Each plate was inoculated with 1:100 (or 1:10 for slow-growing strains, primarily Micrococcus and Streptococcus) dilutions of up to 32 different microorganisms, using a Steers replicator block calibrated to deliver approximately 10^4 colony forming units (CFUs). The inoculated plates were incubated at from about 35° C. to about 37° C. for approximately 20-24 hours. In addition, a control plate using BHI agar containing no test compound was prepared and incubated at the beginning and at the end of each test. The quinolone antibacterial ciprofloxacin was used as a control ("Cntl").
(§2) The MIC was defined as the lowest concentration of test compound yielding no growth (a slight haze or sparsely isolated colonies at the inoculum spot) as compared to the growth control containing no test compound.

Candida albicans CCH 442 = assay: In vitro antibacterial activity, agar dilution MIC; conditions: Candida albicans, CCH442
Description: as §1, §2

Escherichia coli Juhl = assay: In vitro antibacterial activity, agar dilution MIC; format: cell-based
Description: as §1, §2

Staph. epidermidis 3519 = assay: In vitro antibacterial activity, agar dilution MIC; format: cell-based; conditions: Staphylococcus epidermidis
Description: as §1, §2

P. aeruginosa BMH 10 = assay: In vitro antibacterial activity, agar dilution MIC; format: cell-based; conditions: Pseudomonas aeruginosa, BMH10
Description: as §1, §2

P. aeruginosa K799/61 = assay: In vitro antibacterial activity, agar dilution MIC; format: cell-based; conditions: Pseudomonas aeruginosa, K799/61
Description: as §1, §2

Strep. pyogenes EES61 = assay: In vitro antibacterial activity, agar dilution MIC; format: cell-based; conditions: Streptococcus pyogenes
Description: as §1, §2

Staph. aureus 5278 = assay: In vitro antibacterial activity, agar dilution MIC; format: cell-based; conditions: Staphylococcus aureus
Description: as §1, §2

E. coli DC-2 = assay: In vitro antibacterial activity, agar dilution MIC; format: cell-based; conditions: Escherichia coli, DC2
Description: as §1, §2

Staph. aureus CMX 553 = assay: In vitro antibacterial activity, agar dilution MIC; format: cell-based; conditions: Staphylococcus aureus, CMX553; Staph. aureus CMX 553; BHI agar dilution, 20-24 hours; read-out: MIC
Description: as §1, §2

[1] = test system: Nocardia asteroides ATCC 9970; assay: In vitro antibacterial activity, agar dilution MIC; format: cell-based; conditions: ATCC9970; Nocardia asteroides ATCC 9970; BHI agar dilution, 20-24 hours; read-out: MIC
Description: as §1, §2

M. luteus ATCC 9341 = assay: In vitro antibacterial activity, agar dilution MIC; format: cell-based; conditions: Micrococcus luteus, ATCC9341
Description: as §1, §2

Strep. bovis A5169 = assay: In vitro antibacterial activity, agar dilution MIC; format: cell-based; conditions: Streptococcus equinus
Description: as §1, §2

[2] = test system: Strep. pyogenes 930 CONST; assay: In vitro antibacterial activity, agar dilution MIC; format: cell-based; conditions: Streptococcus pyogenes
Description: as §1, §2

M. luteus ATCC 4698 = assay: In vitro antibacterial activity, agar dilution MIC; format: cell-based; conditions: Micrococcus luteus, ATCC4698
Description: as §1, §2

[3] = test system: Staph. aureus 1775 Cipro. R.; assay: In vitro antibacterial activity, agar dilution MIC; format: cell-based; conditions: Staphylococcus aureus
Description: as §1, §2

[4] = test system: Providencia stuartii CMX 640; assay: In vitro antibacterial activity, agar dilution MIC; format: cell-based; conditions: CMX640; Providencia stuartii CMX 640; BHI agar dilution, 20-24 hours; read-out: MIC
Description: as §1, §2

Myco. smegmatis ATCC 114 = assay: In vitro antibacterial activity, agar dilution MIC; format: cell-based; conditions: Mycolicibacterium smegmatis, ATCC114
Description: as §1, §2

E. coli SS = assay: In vitro antibacterial activity, agar dilution MIC; format: cell-based; conditions: Escherichia coli
Description: as §1, §2

Pseudomonas cepacia 296I = assay: In vitro antibacterial activity, agar dilution MIC; format: cell-based; conditions: Burkholderia cepacia
Description: as §1, §2

P. aeruginosa 5263 = assay: microbe, parasite or virus in culture; conditions: Pseudomonas aeruginosa
Description: as §1, §2

Staph. aureus NCTC10649M = assay: In vitro antibacterial activity, agar dilution MIC; format: cell-based; conditions: Staphylococcus aureus
Description: as §1, §2

Staph. aureus 642A = assay: In vitro antibacterial activity, agar dilution MIC; format: cell-based; conditions: Staphylococcus aureus
Description: as §1, §2

[5] = test system: Entero. faecium ATCC 8043; assay: In vitro antibacterial activity, agar dilution MIC; format: cell-based; conditions: Enterococcus faecium, ATCC8043
Description: as §1, §2

[6] = test system: Acinetob. calcoaceticus CMX 669; assay: In vitro antibacterial activity, agar dilution MIC; format: cell-based
Description: as §1, §2

Staph. aureus A5177 = assay: In vitro antibacterial activity, agar dilution MIC; format: cell-based; conditions: Staphylococcus aureus
Description: as §1, §2

[7] = test system: Strep. agalactiae CMX 508; assay: In vitro antibacterial activity, agar dilution MIC; format: cell-based; conditions: Streptococcus agalactiae, CMX508; Strep. agalactiae CMX 508; BHI agar dilution, 20-24 hours; read-out: MIC
Description: as §1, §2

P. aeruginosa K799/WT = assay: In vitro antibacterial activity, agar dilution MIC; format: cell-based; conditions: Pseudomonas aeruginosa
Description: as §1, §2

[8] = test system: Klebs. pneumoniae ATCC 8045; assay: In vitro antibacterial activity, agar dilution MIC; format: cell-based; conditions: Klebsiella pneumoniae, ATCC8045; Klebs. pneumoniae ATCC 8045; BHI agar dilution, 20-24 hours; read-out: MIC
Description: as §1, §2

[9] = test system: Enter. aerogenes ATCC 13048; assay: In vitro antibacterial activity, agar dilution MIC; format: cell-based; conditions: Klebsiella aerogenes, ATCC13048
Description: as §1, §2

P. aeruginosa 2862 = assay: In vitro antibacterial activity, agar dilution MIC; format: cell-based; conditions: Pseudomonas aeruginosa, 2862
Description: as §1, §2

E. coli KNK 437 = assay: In vitro antibacterial activity, agar dilution MIC; format: cell-based; conditions: Escherichia coli, KNK437
Description: as §1, §2

[10] = test system: Strep. pyogenes 2548 INDUC; assay: microbe, parasite or virus in culture; format: cell-based; conditions: Streptococcus pyogenes, 2548INDUC
Description: as §1, §2

E. coli H560 = assay: In vitro antibacterial activity, agar dilution MIC; format: cell-based; conditions: Escherichia coli
Description: as §1, §2

Staph. aureus ATCC 6538P = assay: In vitro antibacterial activity, agar dilution MIC; format: cell-based; conditions: Staphylococcus aureus, ATCC6538P
Description: as §1, §2

SMILES: CC[C@H]1CN(c2c(F)cn3c(=O)c(C(=O)O)cc(C4CC4)c3c2C)C[C@H]1N (relative stereo) [Ex. 3, 8-(cis-3-amino-4-ethylpyrrolidin-1-yl)-1-cyclopropyl-7-fluoro-4H-9-methyl-4-oxo-quinolizine-3-carboxylic acid hydrochloride diastereomer A]
- MIC (P. aeruginosa A5007; P. aeruginosa A5007, BHI agar dilution, 20-24 hours, read-out: MIC): 0.39 mg/L
- MIC (Candida albicans CCH 442): > 100 mg/L
- MIC (Escherichia coli Juhl; Escherichia coli Juhl, BHI agar dilution, 20-24 hours, read-out: MIC): 0.02 mg/L
- MIC (Staph. epidermidis 3519; Staph. epidermidis 3519, BHI agar dilution, 20-24 hours, read-out: MIC): 0.02 mg/L
- MIC (P. aeruginosa BMH 10; P. aeruginosa BMH 10, BHI agar dilution, 20-24 hours, read-out: MIC): 0.39 mg/L
- MIC (P. aeruginosa K799/61): 0.02 mg/L
- MIC (Strep. pyogenes EES61; Strep. pyogenes EES61, BHI agar dilution, 20-24 hours, read-out: MIC): 0.1 mg/L
- MIC (Staph. aureus 5278; Staph. aureus 5278, BHI agar dilution, 20-24 hours, read-out: MIC): 0.02 mg/L
- MIC (E. coli DC-2; E. coli DC-2, BHI agar dilution, 20-24 hours, read-out: MIC): 0.2 mg/L
- MIC (Staph. aureus CMX 553): 0.02 mg/L
- MIC [1]: 0.39 mg/L
- MIC (M. luteus ATCC 9341): 0.1 mg/L
- MIC (Strep. bovis A5169; Strep. bovis A5169, BHI agar dilution, 20-24 hours, read-out: MIC): 0.1 mg/L
- MIC ([2]; 930CONST): 0.05 mg/L
- MIC (M. luteus ATCC 4698): 0.1 mg/L
- MIC ([3]; Staph. aureus 1775 Cipro. R., BHI agar dilution, 20-24 hours, read-out: MIC): 0.78 mg/L
- MIC [4]: 0.78 mg/L
- MIC (Myco. smegmatis ATCC 114; Myco. smegmatis ATCC 114, BHI agar dilution, 20-24 hours, read-out: MIC): 0.02 mg/L
- MIC (E. coli SS; E. coli SS, BHI agar dilution, 20-24 hours, read-out: MIC): 0.002 mg/L
- MIC (Pseudomonas cepacia 296I; Pseudomonas cepacia 296I, BHI agar dilution, 20-24 hours, read-out: MIC): 0.78 mg/L
- MIC (P. aeruginosa 5263): 3.1 mg/L
- MIC (Staph. aureus NCTC10649M; Staph. aureus NCTC10649M, BHI agar dilution, 20-24 hours, read-out: MIC): 0.01 mg/L
- MIC (Staph. aureus 642A; Staph. aureus 642A, BHI agar dilution, 20-24 hours, read-out: MIC): 0.02 mg/L
- MIC [5]: 0.1 mg/L
- MIC ([6]; Acinetob. calcoaceticus CMX 669, BHI agar dilution, 20-24 hours, read-out: MIC): 0.02 mg/L
- MIC (Staph. aureus A5177; Staph. aureus A5177, BHI agar dilution, 20-24 hours, read-out: MIC): 0.02 mg/L
- MIC [7]: 0.1 mg/L
- MIC (P. aeruginosa K799/WT; P. aeruginosa K799/WT, BHI agar dilution, 20-24 hours, read-out: MIC): 0.39 mg/L
- MIC [8]: 0.02 mg/L
- MIC ([9]; Enter. aerogenes ATCC 13048, BHI agar dilution, 20-24 hours, read-out: MIC): 0.05 mg/L
- MIC (P. aeruginosa 2862): 3.1 mg/L
- MIC (E. coli KNK 437; E. coli KNK 437, BHI agar dilution, 20-24 hours, read-out: MIC): 0.1 mg/L
- MIC [10]: 0.05 mg/L
- MIC (E. coli H560; E. coli H560, BHI agar dilution, 20-24 hours, read-out: MIC): 0.01 mg/L
- MIC (Staph. aureus ATCC 6538P; Staph. aureus ATCC 6538P, BHI agar dilution, 20-24 hours, read-out: MIC): 0.01 mg/L

SMILES: O=C(O)c1cn(C2CC2)c2cc(N3CCNCC3)c(F)cc2c1=O [Control, ciprofloxacin, reference compound]
- MIC (P. aeruginosa A5007; A5007): 0.2 mg/L (≈ 0.604 µM)
- MIC (Candida albicans CCH 442): > 100 mg/L
- MIC (Escherichia coli Juhl; Escherichia coli): 0.05 mg/L (≈ 0.151 µM)
- MIC (Staph. epidermidis 3519; 3519): 0.39 mg/L (≈ 1.18 µM)
- MIC (P. aeruginosa BMH 10): 0.1 mg/L (≈ 0.302 µM)
- MIC (P. aeruginosa K799/61): 0.02 mg/L (≈ 0.0604 µM)
- MIC (Strep. pyogenes EES61; EES61): 0.39 mg/L (≈ 1.18 µM)
- MIC (Staph. aureus 5278; 5278): 0.39 mg/L (≈ 1.18 µM)
- MIC (E. coli DC-2): 0.2 mg/L (≈ 0.604 µM)
- MIC (Staph. aureus CMX 553): 0.78 mg/L (≈ 2.35 µM)
- MIC [1]: 25 mg/L (≈ 75.4 µM)
- MIC (M. luteus ATCC 9341): 3.1 mg/L (≈ 9.36 µM)
- MIC (Strep. bovis A5169; A5169): 1.56 mg/L (≈ 4.71 µM)
- MIC ([2]; Strep. pyogenes 930 CONST, BHI agar dilution, 20-24 hours, read-out: MIC): 0.78 mg/L (≈ 2.35 µM)
- MIC (M. luteus ATCC 4698): 1.56 mg/L (≈ 4.71 µM)
- MIC [3]: > 100 mg/L
- MIC [4]: 0.78 mg/L (≈ 2.35 µM)
- MIC (Myco. smegmatis ATCC 114): 1.56 mg/L (≈ 4.71 µM)
- MIC (E. coli SS): 0.005 mg/L (≈ 0.0151 µM)
- MIC (Pseudomonas cepacia 296I; 296I): 3.1 mg/L (≈ 9.36 µM)
- MIC (P. aeruginosa 5263): 12.5 mg/L (≈ 37.7 µM)
- MIC (Staph. aureus NCTC10649M; NCTC10649M): 0.39 mg/L (≈ 1.18 µM)
- MIC (Staph. aureus 642A; 642A): 0.39 mg/L (≈ 1.18 µM)
- MIC ([5]; Entero. faecium ATCC 8043, BHI agar dilution, 20-24 hours, read-out: MIC): 0.78 mg/L (≈ 2.35 µM)
- MIC [6]: 0.39 mg/L (≈ 1.18 µM)
- MIC (Staph. aureus A5177; A5177): 0.39 mg/L (≈ 1.18 µM)
- MIC [7]: 0.78 mg/L (≈ 2.35 µM)
- MIC (P. aeruginosa K799/WT; K799/WT): 0.1 mg/L (≈ 0.302 µM)
- MIC [8]: 0.01 mg/L (≈ 0.0302 µM)
- MIC [9]: 0.05 mg/L (≈ 0.151 µM)
- MIC (P. aeruginosa 2862): 12.5 mg/L (≈ 37.7 µM)
- MIC (E. coli KNK 437): 0.2 mg/L (≈ 0.604 µM)
- MIC [10]: 0.39 mg/L (≈ 1.18 µM)
- MIC (E. coli H560; H560): 0.01 mg/L (≈ 0.0302 µM)
- MIC (Staph. aureus ATCC 6538P): 0.05 mg/L (≈ 0.151 µM)
